A short description of data set [1]: dissolution of CBD from a gelatine capsule in 2% RM-β-CD dissolution media. Type of data set: physicochemical. Conditions: gelatine capsule with 1.0 mg pure CBD and 99 mg lactose, pH 6.6, n=6.
For data set [2] the following is noted: oral administration, depending on the drug vehicle employed; cited from earlier work.
The conditions of data set [3]: 40% solution of HP-β-CD; cited from earlier work.

The structures appear in SMILES notation. Some results are limits rather than exact numbers.

For the compound `C=C(C)[C@@H]1CCC(C)=C[C@H]1c1c(O)cc(CCCCC)cc1O` [CBD, cannabidiol], the “time in which CBD is not fully dissolved” value in data set [1] was over 3 h.

For `CCCCCc1cc(O)c2c(c1)OC(C)(C)[C@@H]1CCC(C)=C[C@@H]21` [THC, Δ^9-tetrahydrocannabinol], in data set [2], the bioavailability was 6-20%. The “THC solution concentration obtained” value in data set [3] is 1 mg/mL.

The values above are taken from patent US7592328B2, “Natural cyclodextrin complexes” (Pedipharm Oy, priority 2002, dated 2009).
